According to paper PMC7876106 (Scientific Reports, 2021):

How the values were obtained:
Type in all cases: binding
antisense TeloDNA [1] = assay: FP assay, FITC labeled TRF2 peptide with antisense TeloDNA; conditions: 10 nM FITC peptide
Method: (§1) All the nucleic acids, peptides and chemicals were dissolved in buffer containing 20 mM HEPES pH7.5, 150 mM salt (KCl, NaCl, LiCl) at the stock concentration of 1 mM. For peptide and nucleic acid interactions, 25μL of each nucleic acids with a sequential twofold dilutions starting from 50 μM was added into each well of 96-well plate followed by adding 25μL of 10 nM FITC labeled TRF2 peptide. For compounds and nucleic acid interactions, 20μL of each compounds with a sequential twofold dilutions starting from 50 μM were added into each well of 96-well plate followed by adding 5μL of 20 ng/mL tRNA and 25μL of 10 nM FAM labeled nucleic acids. For inhibition assay, 5μL FITC labeled TRF2 GAR peptide (10 nM final concentration) and 10 μL oligos (5 μM final concentration) were mixed, followed by adding 5μL of each compound with a sequential twofold dilutions starting from 50 μM into each well of 384-well plate. All components were mixed thoroughly, and the plate was incubated at room temperature for 1 h before placing in an Envision Plate Reader for reading at 495/520 nm. All data curves were fitted using Prism 8.0.

TERRA = assay: FP assay, FITC labeled TRF2 peptide with TERRA; conditions: 10 nM FITC peptide, read-out: EC50 (affinity), peptide binding to TERRA
Method: as §1

antisense TERRA [2] = assay: FP assay, FITC labeled TRF2 peptide with antisense TERRA; conditions: 10 nM FITC peptide
Method: as §1

TeloDNA = assay: FP assay, FITC labeled TRF2 peptide with TeloDNA; conditions: 10 nM FITC peptide, read-out: EC50 (affinity), peptide binding to TeloDNA
Method: as §1

antisense TeloDNA [3] = assay: FP assay, full-length TRF2 protein with FAM labeled antisense TeloDNA; conditions: FAM labeled oligo
antisense TERRA [4] = assay: FP assay, full-length TRF2 protein with FAM labeled antisense TERRA; conditions: FAM labeled oligo

| EC50 (TERRA) [µM] | EC50 (TeloDNA) [µM] | Substance | peptide binding to antisense TeloDNA (antisense TeloDNA [1]) | peptide binding to antisense TERRA (antisense TERRA [2]) | full-length TRF2 affinity for antisense TeloDNA (antisense TeloDNA [3]) | full-length TRF2 affinity for antisense TERRA (antisense TERRA [4]) |
| --- | --- | --- | --- | --- | --- | --- |
| 2.7 | 8.9 | RAAGRRASRSSGRARRGRHEPGLGGPAERGAGEAR [TRF2 GAR, 35-residue peptide containing the GAR domain of TRF2] | Neither TRF2 GAR nor the Ala mutant showed any detectable binding | Neither TRF2 GAR nor the Ala mutant showed any detectable binding | – | – |
| – | – | full-length TRF2 protein: purified recombinant full-length TRF2 protein | – | – | lacks measurable affinity | lacks measurable affinity |
